Test results: EP3277384B1, “SOLID ORAL CARE COMPOSITIONS” (Unilever IP Holdings B.V., priority 2015, dated 2016)

Assay: Approximate solubility of zinc salts
Details: at 25C

For Zinc oxide, the “Approximate Solubility” value was 5 µg/mL.
